The text below walks through data of ChEMBL document CHEMBL1131661, “Use of the Suzuki reaction for the synthesis of aryl-substituted heterocycles as corticotropin-releasing hormone (CRH) antagonists” (Bioorg Med Chem Lett, 1999).

A word on the Ki: it is a measure of affinity in units of concentration, obtained from inhibition or displacement. Low readings indicate higher affinity, high ones lower affinity.

The experiment addresses T1, Corticotropin-releasing factor receptor 1 (Homo sapiens, UniProt P34998).
T1 sequence (P34998 whole entry): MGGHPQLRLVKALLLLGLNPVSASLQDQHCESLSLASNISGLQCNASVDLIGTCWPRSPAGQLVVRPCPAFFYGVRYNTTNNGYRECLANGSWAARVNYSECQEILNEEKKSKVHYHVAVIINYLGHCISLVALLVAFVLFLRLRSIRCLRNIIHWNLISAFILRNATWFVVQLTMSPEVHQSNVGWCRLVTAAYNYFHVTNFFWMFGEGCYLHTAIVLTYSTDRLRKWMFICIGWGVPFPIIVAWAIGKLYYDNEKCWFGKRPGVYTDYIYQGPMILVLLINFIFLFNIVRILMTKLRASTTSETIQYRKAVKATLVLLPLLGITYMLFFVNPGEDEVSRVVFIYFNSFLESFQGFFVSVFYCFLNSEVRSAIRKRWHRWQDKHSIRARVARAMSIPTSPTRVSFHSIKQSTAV
Description: Antagonistic activity for Corticotropin releasing factor receptor 1. The format is functional.

As for `CSc1nn(-c2c(Cl)cc(Cl)cc2Cl)c2nc(C)nc(-c3ccccc3C(F)(F)F)c12`, the affinity corresponds to a Ki of 33.4 nM.
The molecule `Cc1cc(C)c(-n2c(C)c(C)c3c(-c4ccccc4C(F)(F)F)nc(C)nc32)c(C)c1` returned an inhibition constant Ki of 9.7 nM. This Ki is about 3.4-fold lower than that of the molecule before.
In turn, `COc1cc(Br)c(-n2c(=O)n(C)c3c(-c4ccccc4C(F)(F)F)nc(C)nc32)c(OC)c1` gave a Ki of 95.5 nM.
To `COc1cc(Br)c(-n2c(=O)[nH]c3c(-c4ccccc4C(F)(F)F)nc(C)nc32)c(OC)c1` belongs 202 nM.
To `COc1cc(Br)c(Nc2nc(C)nc(-c3ccccc3C(F)(F)F)c2[N+](=O)[O-])c(OC)c1` belongs 23.1 nM.
In the case of `COc1cc(Br)c(-n2c(C)nc3c(-c4ccccc4C(F)(F)F)nc(C)nc32)c(OC)c1`, the Ki came to 32.3 nM.
To `Cc1cc(C)c(-n2nnc3c(-c4ccccc4C(F)(F)F)nc(C)nc32)c(C)c1` belongs 168 nM.
To `CCN(c1nc(C)nc(-c2ccccc2C(F)(F)F)n1)c1ccc(C(C)C)cc1Br` belongs 5.5 nM; to `COc1cc(Br)c(-n2nnc3c(-c4ccccc4C(F)(F)F)nc(C)nc32)c(OC)c1`, 21.4 nM.
To `CCCCN(CC)c1nc(C)nc2c1nnn2-c1c(Br)cc(OC)cc1OC` belongs 3.5 nM; to `COc1cc(Br)c(Nc2nc(C)nc(-c3ccccc3C(F)(F)F)c2N)c(OC)c1`, 60.3 nM; to `CCN(CC1CC1)c1nc(C)nc(Nc2c(Cl)cc(Cl)cc2Cl)c1C`, 2 nM.
